This passage reports Toxicity and ILS results from ChEMBL document CHEMBL1122435, “Pyrrolopyrimidine nucleosides. 18. Synthesis and chemotherapeutic activity of 4-amino-7-(3-deoxy-beta-D-ribofuranosyl)pyrrolo[2,3-d] pyrimidine-5-carboxamide (3'-deoxysangivamycin) and 4-amino-7-(2-deoxy-beta-D-ribofuranosyl)pyrrolo[2,3-d] pyrimidine-5-carboxamide (2'-deoxysangivamycin)” (1983).

A word on the ILS: it is how much longer treated animals lived than controls. The low end stands for a small benefit in survival, the high end for a large benefit in survival.

Assay [1] deals with L1210. The assay is described as follows: Occurrence of drug-induced shortening of life span resulting from treatment at 0.25 mg/kg dose in L1210-bearing mice; y=yes. Format: functional, organism-based. The arrangement: dose 0.25 mg/kg. The conditions noted are these: Mus musculus.
Assay [2] concerns L1210. Put plainly: Increase in life span for drug treated L1210-bearing mice at the dose of 0.25 mg/kg upon intraperitoneal administration. Format: functional. The conditions noted are these: Mus musculus, L1210, ip.
The subject of assay [3] is L1210. The assay is described as follows: Increase in life span for drug treated L1210-bearing mice at the dose of 160 mg/kg upon intraperitoneal administration. The assay is classed as functional. The conditions noted are these: Mus musculus, L1210, ip.
Assay [4] deals with L1210. Put plainly: Occurrence of drug-induced shortening of life span resulting from treatment at 100 mg/kg dose in L1210-bearing mice; y=yes. The assay is classed as functional, organism-based. The conditions noted are these: Mus musculus. Further details: dose 100 mg/kg.
Assay [5] relates to L1210. The assay is described as follows: Increase in life span for drug treated L1210-bearing mice at the dose of 100 mg/kg upon intraperitoneal administration. Format: functional. The note with it: Mus musculus, L1210, ip.
In assay [6] the test system is L1210. The assay is described as follows: Increase in life span for drug treated L1210-bearing mice at the dose of 128 mg/kg upon intraperitoneal administration. The note with it: Mus musculus, L1210, ip. Format: functional.

For the compound `NC(=O)c1cn([C@@H]2O[C@H](CO)[C@@H](O)[C@H]2O)c2ncnc(N)c12` [SANGIVAMYCIN], in the assay with L1210 [1], the Toxicity result was “Yes”. In the assay on L1210 [2], this compound gave an increase in life span (ILS) at 0.25 mg/kg of 37%. As for `NC(=O)c1cn([C@H]2C[C@H](O)[C@@H](CO)O2)c2ncnc(N)c12`, in the assay with L1210 [3], the ILS at 160 mg/kg was 4%. Consider `C[C@H]1OC(n2cc(C(N)=O)c3c(N)ncnc32)[C@H](O)[C@@H]1O` (stereo partly specified), for which the Toxicity entry with L1210 [4] was “Yes”. For the same compound, in the assay on L1210 [5], the increase in life span (ILS) at 100 mg/kg was 5%.

As for `NC(=O)c1cn(C2OC(CO)CC2O)c2ncnc(N)c12` (stereo unspecified), the ILS at 128 mg/kg in the assay on L1210 [6] came to 128%.
